{"source": "paper PMC7286788", "about": "(ACS infectious diseases, 2019)", "key": {"[1]": {"test_system": "M. smegmatis (ATCC607)", "assay": "MIC determination, resazurin, M. smegmatis", "assay_type": "cell-based, Mycobacterium smegmatis", "details": "7H9 with 0.5% tween 80, 3 days at 37 °C"}, "[2]": {"biological_target": "T1, HyMurG (Hydrogenivirga sp. 128-5-R1-1, UniProt A8US35)", "T1 sequence (A8US35 1-350)": "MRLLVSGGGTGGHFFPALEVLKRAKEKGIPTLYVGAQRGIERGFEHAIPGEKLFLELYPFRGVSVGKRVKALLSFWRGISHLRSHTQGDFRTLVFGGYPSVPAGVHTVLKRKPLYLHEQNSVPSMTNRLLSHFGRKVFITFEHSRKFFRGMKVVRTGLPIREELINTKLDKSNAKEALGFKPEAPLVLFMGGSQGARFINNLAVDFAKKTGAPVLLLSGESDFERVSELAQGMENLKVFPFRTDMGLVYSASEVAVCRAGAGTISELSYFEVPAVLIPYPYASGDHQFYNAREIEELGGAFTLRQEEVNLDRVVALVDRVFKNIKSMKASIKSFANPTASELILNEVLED", "assay": "HPLC-based MurG assay, dose-response, HyMurG", "assay_type": "biochemical", "details": "read-out: IC50 HyMurG; HPLC-based method; average of two-three experiments"}, "[3]": {"biological_target": "MsmegMraY (Mycolicibacterium smegmatis, UniProt A0R019)", "sequence (A0R019 whole entry)": "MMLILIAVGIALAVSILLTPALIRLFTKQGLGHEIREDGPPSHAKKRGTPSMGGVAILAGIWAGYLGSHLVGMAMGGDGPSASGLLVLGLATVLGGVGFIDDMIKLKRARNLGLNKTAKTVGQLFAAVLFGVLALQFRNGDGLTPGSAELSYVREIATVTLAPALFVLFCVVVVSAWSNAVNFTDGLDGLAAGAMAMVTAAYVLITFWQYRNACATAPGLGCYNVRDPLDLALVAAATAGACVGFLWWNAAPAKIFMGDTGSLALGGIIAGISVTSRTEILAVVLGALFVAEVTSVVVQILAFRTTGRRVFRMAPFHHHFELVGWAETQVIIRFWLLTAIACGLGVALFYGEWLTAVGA", "assay": "biochemical", "assay_type": "biochemical, Mycobacterium smegmatis"}, "[4]": {"biological_target": "MsmegMurG (Mycolicibacterium smegmatis, UniProt A0R016)", "sequence (A0R016 whole entry)": "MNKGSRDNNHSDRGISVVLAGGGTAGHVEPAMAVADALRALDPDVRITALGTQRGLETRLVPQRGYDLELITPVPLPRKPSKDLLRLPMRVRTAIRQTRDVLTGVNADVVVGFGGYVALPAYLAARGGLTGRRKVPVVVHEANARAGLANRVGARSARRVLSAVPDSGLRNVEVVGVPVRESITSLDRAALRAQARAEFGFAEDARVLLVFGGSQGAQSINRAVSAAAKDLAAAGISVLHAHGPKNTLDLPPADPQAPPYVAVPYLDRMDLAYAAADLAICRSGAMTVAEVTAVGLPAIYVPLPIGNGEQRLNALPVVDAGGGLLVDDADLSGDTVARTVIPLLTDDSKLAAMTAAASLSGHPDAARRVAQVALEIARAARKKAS", "assay": "biochemical", "design": "species or system Mycobacterium smegmatis", "details": "read-out: IC50 MsmegMurG; HPLC-based method; average of two-three experiments"}, "[5]": {"test_system": "Vero cell", "assay": "Cytotoxicity against Vero cells"}, "[6]": {"test_system": "M. tuberculosis (H37Rv)", "assay": "MIC determination, M. tuberculosis", "assay_type": "cell-based, Mycobacterium tuberculosis", "details": "7H9 containing OADC; 14 days"}, "[7]": {"biological_target": "T1, HyMurG", "assay": "UV-Vis-based MurG assay", "assay_type": "biochemical", "details": "50–100 μM"}}, "data": [{"substance": "tunicamycin", "values": [{"measurement": "M. smegmatis (ATCC607) MIC", "setting": "[1]", "value": "6.25 to 12.5", "unit": "µg/mL"}, {"measurement": "IC50", "setting": "[2]", "value": "> 100", "unit": "µM"}, {"measurement": "MurX activity after addition of inhibitor", "setting": "[3]; 50 μM, P-60, protocol B", "value": "terminated completely"}, {"measurement": "IC50", "setting": "[3]; read-out: IC50 MsmegMraY, HPLC-based method, average of two-three experiments", "value": 2.9, "unit": "µM"}, {"measurement": "IC50", "setting": "[4]", "value": "> 100", "unit": "µM"}, {"measurement": "Vero cell cytotoxicity IC50", "setting": "[5]", "value": 1.56, "unit": "µg/mL"}, {"measurement": "M. tuberculosis (H37Rv) MIC", "setting": "[6]", "value": 12.5, "unit": "µg/mL"}, {"measurement": "Inhibition of MurG function / lipid II formation", "setting": "[7]", "value": "did not inhibit"}]}]}
